In patent US5399691A, “Substituted benzoylurea derivatives or their salts” (Ishihara Sangyo Kaisha Ltd., priority 1991, dated 1995):
Converted amounts (≈) assume the structure as drawn. Counter-ions that a name gives are not always drawn. Like-named read-outs stand apart in the source and are kept apart here.

Tests used:
P-388 leukemia = assay: Antitumor activity against P-388 leukemia, increase life span (Test Example 1); format: in vivo, BDF1 mouse (murine); details: days 1, 5 and 9
Excerpt: The compounds of the present invention are effective against experimental murine tumors such as P-388 leukemia, L-1210 leukemia, B-16 melanoma, M-5076 sarcoma, Colon 38, Colon 26 and Lewis lung carcinoma. On the other hand, certain in vivo test systems and protocols have been developed by National Cancer Institute for testing compounds to determine the effectiveness of test compounds as antineoplastic agents. These have been reported in "Cancer Chemotherapy Reports", Part III, Vol. 3, No. 2 (1972) written by Deran, Greenberg, MacDonald, Schumacher and Abott. P-388 leukemia is the most standard experimental murine tumor, and it is known that many of drugs effective against human tumor are also effective against this leukemia. Generally, the effectiveness of a drug for these experimental murine tumors is evaluated by the extended median survival time of a test mouse group to which a test drug is administered on the basis of the median survival time of a control mouse group to which no drug is administered. If the extended median survival time is at least 25-30% longer, the administered drug is determined to be effective.
1×10^6 of P-388 leukemia cells per mouse were intraperitoneally transplanted into BDF1 mouse. Each formulation was intraperitoneally or intravenously administered on the 1st, 5th and 9th days after the transplantation.
The increase life span of each group was determined by comparing the median survival time (days) of a test group to which a test drug is administered and the median survival time (days) of a control group to which physiological saline was administered at the same part as in the case of the test group. Among the tested drug formulations, the compounds of the present invention were formulated in accordance with the below-mentioned Formulation Example 1, and the comparative compounds as shown in Table 8 were formulated in accordance with the below-mentioned Formulation Example 2.
(Note) * Increase life span is calculated by the following equation:
Increase life span % (ILS)=(a/b×100)-100 a: Median survival days of test group of drug administration b: Median survival days of control group of physiological saline administration 0.125 part by weight of the above mentioned Compound No. 1 was dissolved in 5 parts by weight of N,N-dimethylacetamide and 5 parts by weight of polyoxyethylene sorbitan monooleate, and 90 parts by weight of physiological saline was added thereto to form a solution formulation in an agate mortar.
0.125 part by weight of Comparative Compound No. 1 was dissolved in 5 parts by weight of N,N-dimethylacetamide and 5 parts by weight of polyoxyethylene sorbitan monooleate, and 90 parts by weight of physiological saline was added thereto to form a suspension formulation in an agate mortar.

[1] = Solubility in water-soluble solvent by HPLC (Test Example 2); format: physicochemical
Experimental: About 2 mg of each of the compounds of the present invention shown in the following Table 7 was accurately weighed, and was completely dissolved in 2 ml of N,N-dimethylacetamide. The content was then transferred into a 10 ml-measuring flask, and its volume was made constant with acetonitrile. 3 ml of the resultant solution was placed in a 50 ml-measuring flask, and its volume was adjusted constant with acetonitrile to prepare a standard solution. Next, about 2 mg of each of the compounds of the present invention was weighed, and was placed in an agate mortar. Thereafter, 1.5 ml of a test liquid (water-soluble solvent) was added thereto, and the content was mixed for 5 minutes. A suspension thus obtained, was transferred into a 1.5 ml-microtube, and was centrifuged at 15,000 r.p.m. for 10 minutes. The supernatant fluid was placed in a 1 ml-microtube, and was centrifuged again under the same conditions. 0.1 ml of the supernatant fluid thus obtained was diluted with 0.9 ml of acetonitrile to prepare a measuring liquid. The above standard solution and the measuring liquid were analyzed by high pressure liquid chromatography (HPLC), and their solubilities were measured by absolute calibration curve method.
Column: Nucleosil 5 C18, diameter=4.6 mm, length=250 mm
Mobile phase: acetonitrile/water/acetic acid=60/40/0.1
Detection: UV 265 nm, Column temperature: 40° C.,
Sensitivity: 0.005 AUFS or 0.16 AUFS,

Acute toxicity = format: in vivo; details: mouse, in vivo; BDF1 mice, intravenous, Formulation Example 1; read-out: acute toxicity value (LD 50)
Experimental: (§1) None of BDF1 mice were dead by intravenously administering each formulation of Compound Nos. 1 to 9, 20, 49 and 53 of the present invention prepared in accordance with Formulation Example 1 in an amount of 25 mg/kg mouse (on the basis of compound).
(§2) 0.125 part by weight of the above mentioned Compound No. 1 was dissolved in 5 parts by weight of N,N-dimethylacetamide and 5 parts by weight of polyoxyethylene sorbitan monooleate, and 90 parts by weight of physiological saline was added thereto to form a solution formulation in an agate mortar.

BDF1 mice = assay: Acute toxicity; format: in vivo; details: intravenous, 25 mg/kg mouse, Formulation Example 1
Experimental: as §1, §2

[2] = Mus musculus, P388, intravenous
[3] = Mus musculus, P388, intravenous, 12.5 mg/kg
[4] = Mus musculus, P388, intravenous, 25 mg/kg
[5] = 10% peg 400 aqueous, organic solvent or mixture, 10% polyethylene glycol #400 aqueous solution, read-out: Solubility, test solution C
[6] = distilled water, water, read-out: Solubility, test solution A
[7] = physiological saline, read-out: Solubility, test solution B
[8] = Mus musculus, P388, ip, intraperitoneal
[9] = Mus musculus, P388, ip, intraperitoneal, 12.5 mg/kg
[10] = Mus musculus, P388, ip, intraperitoneal, 25 mg/kg

Compound: CN(C)CC(=O)Nc1ccccc1C(=O)NC(=O)Nc1ccc(Oc2ncc(Br)cn2)c(Cl)c1 [Compound No. 2, N-[4-(5-bromo-2-pyrimidinyloxy)-3-chlorophenyl]-N'-[2-(N,N-dimethylglycyl)amino]benzoylurea hydrochloride]
- ILS at 6.25 mg/kg (P-388 leukemia; [2]): 24%
- ILS at 12.5 mg/kg (P-388 leukemia; [3]): 51%
- ILS at 25 mg/kg (P-388 leukemia; [4]): 143%
- solubility [1, 5]: > 4000 µg/mL
- solubility [1, 6]: 2500 µg/mL
- solubility [1, 7]: 550 µg/mL
- LD50 (Acute toxicity): ≥ 25 mg/kg

Compound: C[C@H](N)C(=O)Nc1ccccc1C(=O)NC(=O)Nc1ccc(Oc2ncc(Br)cn2)c(Cl)c1 [Compound No. 3]
- ILS at 6.25 mg/kg (P-388 leukemia; [2]): 10%
- ILS at 12.5 mg/kg (P-388 leukemia; [3]): 70%
- ILS at 25 mg/kg (P-388 leukemia; [4]): 134%
- solubility [1, 5]: 3700 µg/mL (≈ 6.93 mM)
- solubility [1, 6]: 2800 µg/mL (≈ 5.25 mM)
- solubility [1, 7]: 320 µg/mL (≈ 0.6 mM)
- LD50 (Acute toxicity): ≥ 25 mg/kg

Compound: NCC(=O)Nc1ccccc1C(=O)NC(=O)Nc1ccc(Oc2ncc(Cl)cn2)c(Cl)c1 [compound 9]
- ILS at 6.25 mg/kg (P-388 leukemia; [2]): 19%
- ILS at 12.5 mg/kg (P-388 leukemia; [3]): 86%
- ILS at 25 mg/kg (P-388 leukemia; [4]): 152%
- solubility [1, 5]: 1500 µg/mL (≈ 3.16 mM)
- solubility [1, 6]: 1600 µg/mL (≈ 3.37 mM)
- solubility [1, 7]: 160 µg/mL (≈ 0.337 mM)
- LD50 (Acute toxicity): ≥ 25 mg/kg

Compound: CSCC[C@H](N)C(=O)Nc1ccccc1C(=O)NC(=O)Nc1ccc(Oc2ncc(Br)cn2)c(Cl)c1 [Compound No. 5]
- ILS at 12.5 mg/kg (P-388 leukemia; [3]): 3%
- ILS at 25 mg/kg (P-388 leukemia; [4]): 152%
- solubility [1, 5]: 2000 µg/mL (≈ 3.37 mM)
- solubility [1, 6]: 1200 µg/mL (≈ 2.02 mM)
- solubility [1, 7]: 30 µg/mL (≈ 0.0505 mM)
- LD50 (Acute toxicity): ≥ 25 mg/kg

Compound: NCC(=O)NCC(=O)Nc1ccccc1C(=O)NC(=O)Nc1ccc(Oc2ncc(Br)cn2)c(Cl)c1 [compound 8]
- ILS at 12.5 mg/kg (P-388 leukemia; [3]): 90%
- ILS at 25 mg/kg (P-388 leukemia; [4]): 243%
- solubility [1, 5]: 2100 µg/mL (≈ 3.64 mM)
- solubility [1, 6]: 1800 µg/mL (≈ 3.12 mM)
- solubility [1, 7]: 70 µg/mL (≈ 0.121 mM)
- LD50 (Acute toxicity): ≥ 25 mg/kg

Compound: CNCC(=O)Nc1ccccc1C(=O)NC(=O)Nc1ccc(Oc2ncc(Br)cn2)c(C)c1 [compound 53, N-[4-(5-bromo-2-pyrimidinyloxy)-3-methylphenyl]-N'-(2-sarcosylamino)benzoylurea]
- ILS at 10 mg/kg (P-388 leukemia; Mus musculus, P388, intravenous, 10 mg/kg (footnote d)): > 30%
- ILS at 20 mg/kg (P-388 leukemia; Mus musculus, P388, intravenous, 20 mg/kg (footnote c)): > 50%
- solubility [1, 6]: 5000 µg/mL (≈ 9.74 mM)
- solubility [1, 7]: 120 µg/mL (≈ 0.234 mM)
- LD50 (Acute toxicity): ≥ 25 mg/kg
- BDF1 mice dead (BDF1 mice): None

Compound: Nc1ccccc1C(=O)NC(=O)Nc1ccc(Oc2ncc(Cl)cn2)c(C(F)(F)F)c1 [compound 4, reference compound]
- ILS at 6.25 mg/kg (P-388 leukemia; [8]): 71%
- Increase life span (ILS %) (P-388 leukemia; intraperitoneal, 12.5 mg/kg): Tox
- Increase life span (ILS %) (P-388 leukemia; intraperitoneal, 25 mg/kg): Tox
- solubility [1, 6]: 0.4 µg/mL (≈ 0.000885 mM)

Compound: C[C@@H](N)C(=O)Nc1ccccc1C(=O)NC(=O)Nc1ccc(Oc2ncc(Br)cn2)c(Cl)c1 [Compound No. 4]
- ILS at 12.5 mg/kg (P-388 leukemia; [3]): 19%
- ILS at 25 mg/kg (P-388 leukemia; [4]): 95%
- solubility [1, 5]: 2700 µg/mL (≈ 5.06 mM)
- solubility [1, 6]: 2000 µg/mL (≈ 3.75 mM)
- solubility [1, 7]: 140 µg/mL (≈ 0.262 mM)
- LD50 (Acute toxicity): ≥ 25 mg/kg

Compound: Cc1cc(NC(=O)NC(=O)c2ccccc2N)ccc1Oc1ncc(Cl)cn1 [compound 2, reference compound]
- ILS at 6.25 mg/kg (P-388 leukemia; [8]): 34%
- ILS at 12.5 mg/kg (P-388 leukemia; [9]): 83%
- ILS at 25 mg/kg (P-388 leukemia; [10]): 148%
- solubility [1, 6]: 0.8 µg/mL (≈ 0.00201 mM)

Compound: Cc1cc(NC(=O)NC(=O)c2ccccc2NC(=O)CN)ccc1Oc1ncc(Br)cn1 [Compound No. 7, N-[4-(5-bromo-2-pyrimidinyloxy)-3-methylphenyl]-N'-(2-glycylamino)benzoylurea]
- ILS at 6.25 mg/kg (P-388 leukemia; [2]): 50%
- ILS at 12.5 mg/kg (P-388 leukemia; [3]): 105%
- ILS at 25 mg/kg (P-388 leukemia; [4]): 143%
- solubility [1, 5]: 3900 µg/mL (≈ 7.81 mM)
- solubility [1, 6]: > 2300 µg/mL
- solubility [1, 7]: 380 µg/mL (≈ 0.761 mM)
- LD50 (Acute toxicity): ≥ 25 mg/kg

Compound: NCC(=O)Nc1ccccc1C(=O)NC(=O)Nc1ccc(Oc2ncc(Br)cn2)c(Cl)c1 [Compound No. 1, N-[4-(5-bromo-2-pyrimidinyloxy)-3-chlorophenyl]-N'-(2-glycylamino)benzoylurea hydrochloride]
- ILS at 6.25 mg/kg (P-388 leukemia; [2]): 12%
- ILS at 12.5 mg/kg (P-388 leukemia; [3]): 79%
- ILS at 25 mg/kg (P-388 leukemia; [4]): 219%
- solubility [1, 5]: 2100 µg/mL
- solubility [1, 6]: 1200 µg/mL
- solubility [1, 7]: 50 µg/mL
- LD50 (Acute toxicity): ≥ 25 mg/kg

Compound: CCc1cc(NC(=O)NC(=O)c2ccccc2N)ccc1Oc1ncc(Br)cn1 [compound 3, reference compound]
- ILS at 6.25 mg/kg (P-388 leukemia; [8]): 26%
- ILS at 12.5 mg/kg (P-388 leukemia; [9]): 26%
- ILS at 25 mg/kg (P-388 leukemia; [10]): 99%
- solubility [1, 6]: < 0.1 µg/mL

Compound: Cc1cc(NC(=O)NC(=O)c2ccccc2NC(=O)[C@H](C)N)ccc1Oc1ncc(Br)cn1 [compound 49]
- ILS at 6.25 mg/kg (P-388 leukemia; [2]): 14%
- ILS at 12.5 mg/kg (P-388 leukemia; [3]): 76%
- ILS at 25 mg/kg (P-388 leukemia; [4]): 190%
- solubility [1, 5]: 9800 µg/mL (≈ 19.1 mM)
- solubility [1, 6]: 7600 µg/mL (≈ 14.8 mM)
- solubility [1, 7]: 1800 µg/mL (≈ 3.51 mM)
- LD50 (Acute toxicity): ≥ 25 mg/kg
- BDF1 mice dead (BDF1 mice): None

Compound: NCC(=O)Nc1ccccc1C(=O)NC(=O)Nc1ccc(Oc2ncc(Cl)cn2)c(C(F)(F)F)c1 [compound 6]
- ILS at 6.25 mg/kg (P-388 leukemia; [2]): 60%
- ILS at 12.5 mg/kg (P-388 leukemia; [3]): 138%
- solubility [1, 5]: 1900 µg/mL (≈ 3.73 mM)
- solubility [1, 6]: 1400 µg/mL (≈ 2.75 mM)
- solubility [1, 7]: 70 µg/mL (≈ 0.138 mM)
- LD50 (Acute toxicity): ≥ 25 mg/kg

Compound: Nc1ccccc1C(=O)NC(=O)Nc1ccc(Oc2ncc(Br)cn2)c(Cl)c1 [compound 1, reference compound]
- ILS at 6.25 mg/kg (P-388 leukemia; [8]): 50%
- ILS at 12.5 mg/kg (P-388 leukemia; [9]): 107%
- Increase life span (ILS %) (P-388 leukemia; intraperitoneal, 25 mg/kg): Tox
- solubility [1, 5]: < 0.05 µg/mL
- solubility [1, 6]: < 0.05 µg/mL
- solubility [1, 7]: 0.06 µg/mL (≈ 0.00013 mM)
